Source: patent US8173673B2, “Biofilm-inhibiting effect and anti-infective activity of N,C-linked aryl isoquinolines and the use thereof” (Julius-Maximilians-Universitaet Wuerzburg, priority 2006, dated 2012)
Read-outs that look alike come from different tables or passages of the source. Blank lines part the entries; values can stand above or below the compound they belong to.

Columns and labels:
Type in all cases: cell-based
[1] = tested on: Leishmania major-promastigotes (MHOM/IL81/FE/BNI); test: Alamar Blue activity test against Leishmania major promastigotes
Protocol: Leishmania major-promastigotes (MHOM/IL81/FE/BNI) were cultivated in blood agar-cultures at 26° C., 5% CO2, and 95% humidity. For the experiment, the promastigotes were washed twice with saline phosphate buffer (PBS) and subsequently suspended (10^8 cells/ml) in Click-RPMI-1640-medium without phenol red, spiked with 10% FCS, 2 mM L-glutamine, 1.0 mM HEPES-buffer, pH 7.2, 100 μg/ml penicillin, […] gentamycin, 7.5% NaHCO3 and 50 μM 2-mercaptoethanol (culture medium). For the determination of activity, 200 μl of the promastigote-suspension in microtiter plates were each incubated with the compounds in a geometric series of dilutions for 24 hours at 26° C., 5% CO2, and 95% humidity. Subsequently, 20 μl Alamar Blue (Trinova Biochem, Gieβen, Germany) were added to each of the microcultures, and the cultures were incubated further. Cultures that only contained medium and the compound, or only cellular suspension (without compound), served as controls. The optical density was measured after another 24 hours with an ELISA-reader at the wave lengths 550 nm and 630 nm. The IC50-values of the compounds were calculated through linear interpolation (J. Mikes, D. Steverding. Parasitol. Int. 2000, 48, 265-269).
Macrophages of the cell line J774.1 were washed and suspended in culture medium ([…]. For the test, 200 μl of the cell suspension and the compounds were pipetted in a geometric series of dilutions into cultures on microtiter plates. Following 24 hours of incubation at 37° C., 5% CO2, and 95% humidity, 20 μl Alamar Blue were added to each micro-culture, and the microtiter plate was incubated further. Micro-cultures with medium and the compound as well as micro-cultures that only contained cellular suspension (without compound), served as controls. The optical density was measured after 24, 48, and 72 hours with an ELISA-reader at the wavelengths 550 nm and 630 nm. The IC50-values of the compounds were calculated using linear interpolation. Amphotericin B served as a reference compound and positive control. […]

[2] = tested on: Trypanosoma brucei brucei strain TC-221; test: Alamar Blue anti-trypanosome test, bloodstream forms
Protocol: Bloodstream-forms of the strain TC-221 of Trypanosoma brucei brucei were cultivated in enriched Baltz-culture medium in an atmosphere von 5% CO2 at 37° C. For activity determinations, a defined number of pathogens (10^4 trypanosomes per ml) were incubated in 96-well-plates with the compounds in different concentrations for 48 to 72 hours. The effect of the drugs was quantifiable using the ED50-values with linear interpolation. The trypanocidal activity of the test compounds was determined through measuring absorption on an MR 700 microplate reader (test wavelength 550 nm, reference wavelength 630 nm) by means of Alamar Blue®, an indicator of metabolic cellular functions. The addition of the dye took place 24 hours after starting the incubation. The color change of Alamar Blue® as used in this absorption measurements is based on reduction processes involving NADH or NADH-dependent enzymes. Incubation times and the concentrations of dye as required correlate with the metabolic activities of the trypanosomes. The MIC-value (minimum inhibitory concentration) was determined microscopically through counting of living cells in Neubauer-counting chambers. Suramine Na served both as positive control and reference.
The anti-trypanosomal activities of the compounds of the general structures 1-3 were studied based on a series of examples according to the above-described methods. The therapeutic index is the ratio of the cytoxicity (J774.1 macrophages) to the activities against Trypanosoma brucei brucei.

[3] = tested on: Plasmodium falciparum strain K1; test: [3H]-hypoxanthine-inclusion-test, anti-plasmodium activity
Description: For the determination of the anti-plasmodium activities, cultures of Plasmodium falciparum strain K1 (resistant against chloroquine and pyrimethamine) were used. A modification (R. G. Ridley, W. Hofheinz, if Matile, C. Jacquet, A. Dorn, R. Masciadri, S. Jolidon, W. F. Richter, A. Guenzi, M. A. Girometta, H. Urwyler, W. Huber, S. Thaitong, W. Peters, Antimicrob. Agents Chemother. 1996, 40, 1846-1854) of the [^3H]-hypoxanthine-inclusion-test (R. E. Desjardins, C. J. Canfield, D. Haynes, J. Chulay, Antimicrob. Agents Chemother. 1979, 16, 710-718) was used. Human red blood cells infected with P. falciparum (0.3% infection) at a hematocrit of 2.5% (volume fraction of the red blood cells) in RPMI 1640 medium with the serum replacement Albumax II (5 g/L) were incubated with serial dilutions of the drugs in microtiter plates for 48 hours at 37° C. under a CO2-enriched and O2-reduced atmosphere. Then, 0.5 μCi [^3H]-hypoxanthine were added to each well of the microtiter plate, and after a further 24 hours of incubation time the wells were harvested with a Betaplate Cell Harvester onto glass fiber filters, and lysed with distilled water. The incorporation of radio-labeled hypoxanthine (which correlates with the quantity of living parasites) was determined using a scintillation counter. The IC50 value was determined from sigmoidal inhibition curves. The tests were performed in duplicate, and repeated at least once. Parasite cultures without additive served as control (100% incorporation), cultures with a dilution series of chloroquine served as positive control.
(§1) The anti-plasmodia activities of the compounds of the general structures 1-3 were studied based on a series of examples according to the above-described methods. The therapeutic index is the ratio of the IC50 values for rat myoblasts (L-6-cells=cytotoxicity) to the IC50 values for Plasmodium falciparum.

[4] = tested on: rat myoblasts (L-6-cells); test: Cytotoxicity on rat myoblasts (L-6-cells); conditions: result in words
Description: as §1

[5] = Trypanosoma brucei, T. brucei brucei TC-221, after 48 h, read-out: ED50 (μM) after 48 h
[6] = Trypanosoma brucei, T. brucei brucei TC-221, after 72 h, read-out: ED50 (μM) after 72 h
[7] = P. falciparum strain K1 (resistant against chloroquine and pyrimethamine), read-out: IC50

EC50 [2, 5]: 0.325 µM | EC50 [2, 6]: 0.311 µM
Structure (SMILES): COc1ccc(-[n+]2c(C)cc3cc(OC)cc(OC)c3c2C)c(OC)c1 [F]

IC50 [3, 7]: 56 nM
Structure (SMILES): COc1cc(OC)c2c(C)[n+](-c3ccc(Cl)cc3)c(C)cc2c1 [G]

IC50 [3, 7]: 282 nM
Structure (SMILES): COc1cc(OC)c2c(C)[n+](-c3ccc(C(F)(F)F)cc3)c(C)cc2c1 [H]

IC50 [3, 7]: 211 nM
Structure (SMILES): COc1cc(OC)c2c(C)[n+](-c3ccc(NC(C)=O)cc3)c(C)cc2c1 [I]
cytotoxicity [4]: without a detectable cytotoxicity

EC50 ([2]; T. brucei brucei TC-221, after 48 h, read-out: ED50 (μM) after 48 h): 0.31 µM | EC50 ([2]; T. brucei brucei TC-221, after 72 h, read-out: ED50 (μM) after 72 h): 0.32 µM
Structure (SMILES): Cc1ccc(C(=O)Nc2ccc(S(=O)(=O)O)c3cc(S(=O)(=O)O)cc(S(=O)(=O)O)c23)cc1NC(=O)c1cccc(NC(=O)Nc2cccc(C(=O)Nc3cc(C(=O)Nc4ccc(S(=O)(=O)O)c5cc(S(=O)(=O)O)cc(S(=O)(=O)O)c45)ccc3C)c2)c1 [Suramin Na, reference compound]

The remaining lines, values behind:

Structure (SMILES): C[C@@H]1[C@H](O)[C@@H](C)/C=C/C=C/C=C/C=C/C=C/C=C/C=C/[C@H](O[C@@H]2O[C@H](C)[C@@H](O)[C@H](N)[C@@H]2O)C[C@@H]2O[C@](O)(C[C@@H](O)C[C@@H](O)[C@H](O)CC[C@@H](O)C[C@@H](O)CC(=O)O[C@H]1C)C[C@H](O)[C@H]2C(=O)O [Amphotericin B, reference compound]
IC50 [1]: 2510 nM

Structure (SMILES): COc1cc(OC)c2c(C)[n+](-c3ccc(C)cc3)c(C)cc2c1 [B]
IC50 [1]: 2450 nM

Structure (SMILES): COc1cc2c(c(OC)c1)C(C)=[N+](c1cccc3ccccc13)[C@@H](C)C2 [Compound 2a, (3S)—N,1′-naphthyl-6,8-dimethoxy-1,3-dimethyl-3,4-dihydroisoquinolinium-trifluoro-acetate]
EC50 [2, 5]: 0.39 µM | EC50 [2, 6]: 0.356 µM

Structure (SMILES): COc1cc(OC)c2c(C)[n+](-c3ccc(C(C)C)cc3)c(C)cc2c1 [D]
IC50 [1]: 850 nM

Structure (SMILES): COc1cc(OC)c2c(C)[n+](-c3ccccc3OC)c(C)cc2c1 [E]
EC50 [2, 5]: 0.383 µM | EC50 [2, 6]: 0.323 µM

Structure (SMILES): CCN(CC)CCCC(C)Nc1ccnc2cc(Cl)ccc12 (stereo not shown) [chloroquine, reference compound]
IC50 ([3]; K1): 119 nM
